The values below come from ChEMBL document CHEMBL4033679, “Medicinal chemistry of antischistosomal drugs: Praziquantel and oxamniquine” (Bioorg Med Chem, 2017).

The subject of series [1] is Schistosoma japonicum. Kind of series: Antiparasitic activity against Schistosoma japonicum cercariae isolate Anhui infected in ICR mouse assessed as overall reduction rate at 100 to 400 mg/kg, po administered as single dose for 5 consecutive days measured on day 21 post dose by scanning electron microscopic method. The series is classed as functional. Details: scale not given: the % may be the effect or the level left.

Series [2] deals with Schistosoma mansoni. The experiment in a line: Antiparasitic activity against Schistosoma mansoni in patient assessed as cure rate by measuring reduction in eggs in stool at 60 mg/kg/day for 3 consecutive days measured up to day 180 post dose relative to control. The series is classed as functional. Further details: scale not given: the % may be the effect or the level left.

Series [3] concerns Schistosoma mansoni. The experiment in a line: In vivo antiparasitic activity against Schistosoma mansoni assessed as cure rate at 40 to 60 mg/kg relative to control. The series is classed as functional.
Series [4] is described as follows: Antiparasitic activity against Schistosoma in intestinal schistosomiasis patient assessed as cure rate at 40 mg/kg. The series is classed as functional.
Series [5] in a line: Fraction absorbed in po dosed rat. The series is classed as ADME, organism-based. The following applies: in vivo, read-out: Fabs.
The target in series [6] is albumin (Homo sapiens, UniProt P02768). The experiment in a line: Binding affinity to albumin (unknown origin). The series is classed as ADME. The note with it: read-out: PB.
Chain of albumin (P02768 whole entry): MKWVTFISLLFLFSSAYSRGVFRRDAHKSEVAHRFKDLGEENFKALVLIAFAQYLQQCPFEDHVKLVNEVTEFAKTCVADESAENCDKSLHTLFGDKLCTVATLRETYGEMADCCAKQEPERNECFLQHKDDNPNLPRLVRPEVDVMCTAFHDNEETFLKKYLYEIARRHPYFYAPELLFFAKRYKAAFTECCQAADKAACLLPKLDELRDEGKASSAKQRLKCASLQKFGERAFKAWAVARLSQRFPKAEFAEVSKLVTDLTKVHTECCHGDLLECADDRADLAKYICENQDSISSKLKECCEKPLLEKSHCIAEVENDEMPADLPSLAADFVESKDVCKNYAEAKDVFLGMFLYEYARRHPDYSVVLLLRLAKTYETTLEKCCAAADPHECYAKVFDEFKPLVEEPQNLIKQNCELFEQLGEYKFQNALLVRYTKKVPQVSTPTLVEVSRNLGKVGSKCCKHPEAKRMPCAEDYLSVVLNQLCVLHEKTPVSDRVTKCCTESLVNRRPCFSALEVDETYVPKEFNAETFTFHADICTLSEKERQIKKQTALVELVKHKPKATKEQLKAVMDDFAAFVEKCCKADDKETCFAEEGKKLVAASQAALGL
Series [7] can be described thus: Drug excretion in human urine up to 4 days. The series is classed as ADME. The following applies: read-out: Drug excretion.
A short description of series [8]: Protein binding in plasma (unknown origin). The series is classed as ADME, cell-free.
Series [9] in a line: Fraction absorbed in po dosed human. The series is classed as ADME, organism-based. The following applies: in vivo, read-out: Fabs.
The nature of series [10]: Fraction absorbed in po dosed monkey. The series is classed as ADME, organism-based, Macaca mulatta. The following applies: rhesus monkey, in vivo, read-out: Fabs.
A short description of series [11]: Apparent permeability in human Caco2 cells. The series is classed as ADME, cell-based. The following applies: Caco-2.
Series [12] is described as follows: Cmax in human after 1 to 2 hrs. The series is classed as ADME.
Series [13] can be described thus: Half life in human. The series is classed as ADME.
Series [14] in a line: Protein binding in plasma (unknown origin) relative to control. The series is classed as ADME, cell-free. The note with it: read-out: PPB.
Series [15] deals with Schistosoma mansoni. Kind of series: In vivo antiparasitic activity against Schistosoma mansoni assessed as reduction in egg count in […] at 40 to 60 mg/kg relative to control. Further details: scale not given: the % may be the effect or the level left. The series is classed as functional.
Series [16] is described as follows: Tmax in human. The series is classed as ADME.
Series [17] is described as follows: Fraction absorbed in po dosed dog. The series is classed as ADME, organism-based, Canis lupus familiaris. The following applies: in vivo, read-out: Fabs.
Series [18] has as its system Plasma. The experiment in a line: Drug level in human plasma after 1 to 2 hrs. The series is classed as ADME, cell-free.
Series [19] deals with Schistosoma mansoni. The experiment in a line: Antiparasitic activity against Schistosoma mansoni in patient assessed as reduction in eggs per gram of rectal mucosa at 60 mg/kg/day for 3 consecutive days measured up to day 180 post dose relative to control. Details: scale not given: the % may be the effect or the level left. The series is classed as functional.
Series [20] can be described thus: Cytotoxicity against human HeLa cells assessed as cell survival at 40 uM after 24 hrs by MTT assay relative to control. The note with it: read-out: Survival. The series is classed as cell-based.
In series [21] the test system is Schistosoma mansoni. The experiment in a line: Antiparasitic activity against Schistosoma mansoni in patient assessed as cure rate by measuring reduction in eggs in stool at 10 mg/kg/day bid measured up to day 180 post dose relative to control. The series is classed as functional. Details: scale not given: the % may be the effect or the level left.
Series [22] in a line: Drug excretion in human urine at 15 mg/kg, po. The series is classed as ADME, organism-based. The note with it: read-out: Drug excretion.
Series [23] in a line: Cmax in human at 15 mg/kg, po. The series is classed as ADME, organism-based. Further details: dose 15 mg/kg, route oral. The note with it: in vivo.
A short description of series [24]: Elimination half life in human at 15 mg/kg, po. The series is classed as ADME, organism-based. The note with it: in vivo, read-out: beta t1/2.
For series [25], the system named is Schistosoma mansoni. Kind of series: Antiparasitic activity against Schistosoma mansoni in patient assessed as reduction in eggs per gram of rectal mucosa at 10 mg/kg/day bid measured up to day 180 post dose relative to control. The series is classed as functional. Details: scale not given: the % may be the effect or the level left.
Series [26] deals with Schistosoma japonicum. The experiment in a line: Antiparasitic activity against Schistosoma japonicum derived from infected C57BL/6 mouse assessed as parasite killing at 10 uM incubated for 30 to 60 mins measured up to 72 hrs by inverted microscopic method relative to control. The series is classed as functional.

Take `C[C@H]1[C@@H](OC(=O)CCC(=O)Oc2ccc3c(c2)C2CN(C(=O)C4CCCCC4)CC(=O)N2CC3)O[C@@H]2O[C@@]3(C)CC[C@H]4[C@H](C)CC[C@@H]1[C@@]24OO3` (stereo partly drawn): the Activity in series [1] worked out at 60%.
Regarding `O=C(C1CCCCC1)N1CC(=O)N2CCc3ccccc3C2C1` (stereo not drawn) [PRAZIQUANTEL], the Activity is recorded as 100% in [2]; 60 - 90% in series [3]; 18 - 39% in series [4]; 90 - 95% in series [15]; 96.1% in [19]. In addition, the Fa in series [5], in series [9], in series [10] and in series [17] was 75 to 100% in each case. Moreover, the values for the fraction unbound in series [6] and in series [14] were 0.19 to 0.22 and 0.195 to 0.21, respectively. In [7], the dose excreted at 96 h amounted to 80%. This molecule also returned a PPB in [8] of 0.19 to 3 mg/mL. In [11], the Papp amounted to 44 ×10⁻⁶ cm/s. The same molecule registered a Cmax in series [12] of 1000 ng/mL. In addition, the half-life in series [13] was 1.5 h. Also, in series [16], the Tmax lay in the range of 3 to 4 h. In series [18], this molecule displayed a Drug uptake of 5 to 7 %ID.
As to `O=C(CCCCCN1C(=O)c2cccc3c(C4CCOCC4)ccc(c23)C1=O)Nc1ccc2c(c1)C1CN(C(=O)C3CCCCC3)CC(=O)N1CC2` (stereo not drawn), the viability at 24 h, 40 µM in [20] is more than 85%.
Turning to `O=C(C1CCCCC1)N1CC(=O)N2CCc3ccc([N+](=O)[O-])cc3C2C1` (stereo not drawn), in [20], the viability at 24 h, 40 µM was more than 85%.
Take `CC(C)NCC1CCc2cc(CO)c([N+](=O)[O-])cc2N1` (stereo not drawn) [OXAMNIQUINE]: the Activity in series [21] is 90.3%; in [25], 42.4%. Further, the dose excreted in [22] was 0.4 to 1.9%. The molecule also registered a Cmax in [23] of 1000 to 4000 ng/mL. For the same molecule, the half-life in [24] was in the range of 1.5 to 2 h.
`Nc1ccc2c(c1)C1CN(C(=O)C3CCCCC3)CC(=O)N1CC2` (stereo not drawn): the viability at 24 h, 40 µM in series [20] was more than 85%.
Turning to `O=C(CCl)N1CC(=O)N2CCc3sccc3C2C1` (stereo not drawn), the Activity in series [26] came to 100%.
